Assay [1] has as its target T1, squalene synthase (human HepG2 enzyme) (Homo sapiens, UniProt P37268).
T1 construct: The resulting pellet from the 100,000×g centrifugation, containing the squalene synthase; endogenous in cells; host or cells: HepG2 (ATCC HB 8065), microsomal pellet of sonicated cells
T1 sequence (P37268 1-417): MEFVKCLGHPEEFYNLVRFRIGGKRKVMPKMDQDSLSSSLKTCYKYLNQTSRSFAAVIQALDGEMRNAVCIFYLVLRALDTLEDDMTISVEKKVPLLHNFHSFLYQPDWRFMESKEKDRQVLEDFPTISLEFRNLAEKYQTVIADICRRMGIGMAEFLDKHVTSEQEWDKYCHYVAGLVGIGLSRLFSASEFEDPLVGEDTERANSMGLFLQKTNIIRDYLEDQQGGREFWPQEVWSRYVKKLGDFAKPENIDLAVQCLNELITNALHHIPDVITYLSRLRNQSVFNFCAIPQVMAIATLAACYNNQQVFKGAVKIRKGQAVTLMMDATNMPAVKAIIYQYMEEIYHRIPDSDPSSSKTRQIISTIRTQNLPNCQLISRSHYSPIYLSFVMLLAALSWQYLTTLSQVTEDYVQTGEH
Briefly: Squalene synthase assay, human HepG2 cell enzyme. The assay is classed as biochemical. To be noted: 3H-farnesyl pyrophosphate, 30° C., 20 min. As to the method: The intrinsic squalene synthase inhibitory activity of representative compounds of this invention was measured by the standard in vitro protocol described below:
PREPARATION OF HUMAN HepG2 Cell ENZYME
1. SOURCE: HEPG2 CELL LINE (Liver, hepatoblastoma, Human) ATCC No. HB 8065
2. CELL GROWTH AND MAINTENANCE
Culture Medium: Minimum essential medium (MEM) with non-essential amino acids, sodium pyruvate, and 10% fetal bovine serum. The medium was changed twice weekly. […] The growth medium was prepared as listed below.
SUBCULTURE PROCEDURE: The medium was removed and washed with PBS (Phosphate-Buffered Saline 15.6 mM, pH 7.0). Fresh trypsin (0.25%)-EDTA (0.02%) with Hank's Balanced Salt solution was added and the flask was allowed to stand for a minute before the trypsin solution was removed. The flask was incubated at 37° C. until cells detached. Fresh medium was added and the cells were dispersed and dispensed into new flasks. Subcultivation ratio: 1:6. […]
HARVEST: The medium was removed and the cells were washed with PBS. […] Cells were counted (2.5×10^9 yield from 18 flasks (75 cm^2)), and resuspended in 10 mL of 50mM HEPES (N-[2-Hydroxyethyl]piperazine-N'-[2-ethane sulfonic acid]) containing 5 mM MgCl2, 2 mM MnCl2, 10 mM DTT, pH 7.5 (enzyme suspension buffer). […]

The next assay has as its target farnesyl transferase (Homo sapiens, UniProt P49354+P49356). Briefly: Farnesyl-transferase assay (Ras farnesylation in vitro). It counts as biochemical. To be noted: ras-CVLS, 3H-FPP 100 nM; 60 min, room temperature; read-out: Farnesyl transferase IC50 (inhibition of Ras farnesylation in vitro). As to the method:
FARNESYL-TRANSFERASE ASSAY
I. PREPARATION OF SOLUTIONS REQUIRED FOR THE ASSAY
203.3 g MgCl2 was dissolved in 1.0 L distilled water, and filtered through a sterile filter and stored at 4° C.
264.5 g of HEPES was added to 700 mL distilled water followed by 56 mL of 1.0M MgCl2 The pH was adjusted to 7.5 with sodium hydroxide and the volume was brought to 1000 mL. The solution was filtered through a sterile filter and stored at 4° C.
iii. 0.5M Dithiothreitol (DTT, MW=154.24)
77.12 mg of DTT was dissolved in 1.0 mL of distilled water. A few drops of 10N NaOH was added to get the DTT to go into solution. 0.5M DTT was divided into 500 μL aliquots and stored at -20° C.
iv. Preparation of Assay Buffer (Prepare fresh daily)
100 μL of 0.5M DTT was added to 900 μL of 1.1M HEPES, pH 7.5 and 55.5 mM MgCl2 to yield a 10X buffer consisting of 1.0M HEPES, pH 7.5, 50 mM MgCl2 and 50 mM DTT.
v. Preparation of ^3 H-FPP
The ^3 H-FPP (NEN #NET-1042, MW=433.3) was used directly from the bottle as provided by NEN. The stock concentration of the ^3 H-FPP was 25 μM.
vi. Preparation of the reaction mix for Totals and unknown samples (on ice)
The reaction mix was prepared as below: […]
x. The filter mats were placed in counting bags, 30 mL of LKB β-scint cocktail was added and the filter mats were counted for 120 sec in the LKB β-plate counter […]
Percent inhibition was calculated according to the following equation: [formula] […]

Assay [2] addresses T2, squalene synthase (rat liver enzyme) (Rattus norvegicus, UniProt Q02769).
T2 construct: from tissue; host or cells: liver microsomes of male Charles River CD rats fed lovastatin
T2 sequence (Q02769 1-416): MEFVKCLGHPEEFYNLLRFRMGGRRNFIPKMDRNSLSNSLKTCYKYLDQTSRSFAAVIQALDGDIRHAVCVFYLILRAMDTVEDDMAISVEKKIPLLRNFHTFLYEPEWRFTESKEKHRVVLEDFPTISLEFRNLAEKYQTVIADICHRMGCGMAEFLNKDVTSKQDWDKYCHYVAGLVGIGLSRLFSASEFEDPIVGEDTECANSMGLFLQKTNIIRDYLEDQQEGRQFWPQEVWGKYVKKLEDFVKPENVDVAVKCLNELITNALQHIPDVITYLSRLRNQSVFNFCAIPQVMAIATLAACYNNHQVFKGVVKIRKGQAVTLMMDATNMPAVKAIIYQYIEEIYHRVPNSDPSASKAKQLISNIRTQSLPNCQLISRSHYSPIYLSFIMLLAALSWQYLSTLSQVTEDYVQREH
Nature of the assay: Squalene synthase assay, rat liver microsomes. To be noted: 3H-farnesyl pyrophosphate, 30° C., 20 min. It counts as biochemical. As to the method:
The intrinsic squalene synthase inhibitory activity of representative compounds of this invention was measured by the standard in vitro protocol described below: […] Male, CHARLES RIVER CD rats (120 to 150 g) were fed a diet containing 0.1% lovastatin for 4 days. […] The homogenate was centrifuged twice at 20,000×g for 15 min. at 4° C., discarding the pellet each time. The supernatant was then centrifuged at 100,000×g for 1 hr at 4° C. The resulting microsomal pellet was resuspended in a volume of the above homogenizing buffer equal to one-fifth the volume of the original homogenate. […] The microsomal suspensions were stored in aliquots at -70° C. squalene synthase activity in these aliquots is stable for a least several months. Squalene Synthase Assay Reactions were performed in 1.2 mL polypropylene tube strips of 8. Buffer mixture and substrate mixture for the assay were prepared from the following solution: Buffer mixture contains 270 mM HEPES, pH 7.5, 20 mM Potassium fluoride and 5.4 mM Dithiothreitol (DTT). […] 400 μL of heptane layer was then removed into a minivial and mixed with 2.5 mL of scintillation fluid and the radioactivity was determined by liquid scintillation counting. […] Percent inhibition is calculated by the formula: [formula] IC50 values were determined by plotting the log of the concentration of the test compound versus the percentage inhibition. […]
On the technique in general: Liver microsomes are a subcellular fraction often used to study metabolism.

Another assay relates to Ras farnesylation. To be noted: Hancock et al., Casey et al., Schafer et al.; cited from earlier work.

The values that follow come from patent US5283256A, “Cholesterol-lowering agents” (Merck & Co., Inc., priority 1992, dated 1994).

As usually defined, the IC50 is the point on the concentration scale where inhibition reaches its midpoint.

As for `CCCCCCCCCC(=O)OC1C(O)C2(CCCC(OC(C)=O)C(C)C/C=C/c3ccccc3)OC(C(=O)O)C(O)(C(=O)O)C1(C(=O)O)O2` (centres unmarked) [Zaragozic Acid D2], the IC50 was 2 nM in assay [1], 100 nM on farnesyl transferase and 6 nM in assay [2].

Take `CCCCCCCC(=O)OC1C(O)C2(CCCC(OC(C)=O)C(C)C/C=C/c3ccccc3)OC(C(=O)O)C(O)(C(=O)O)C1(C(=O)O)O2` (centres unmarked) [Zaragozic Acid D]: the results for the IC50 (in assay [1]; on farnesyl transferase; in assay [2]) were 1 nM, 100 nM and 6 nM, respectively.

With `CC[C@H](C)C(=O)O[C@H]1CCC=C2C=C[C@H](C)[C@H](CC[C@@H]3C[C@@H](O)CC(=O)O3)[C@H]21` [compactin], in the assay with Ras farnesylation, the “Inhibition of Ras farnesylation in vivo (in words)” value is given as “Inhibition of Ras farnesylation in vivo has been demonstrated”.

Take `CC[C@H](C)C(=O)O[C@H]1C[C@@H](C)C=C2C=C[C@H](C)[C@H](CC[C@@H]3C[C@@H](O)CC(=O)O3)[C@H]21` [lovastatin]: the “Inhibition of Ras farnesylation in vivo (in words)” value in the assay on Ras farnesylation was “Inhibition of Ras farnesylation in vivo has been demonstrated”.
